Source: patent US9999222B2, “Herbicidal combination comprising azines” (BASF SE, priority 2014, dated 2018)

Tests used:
Assay in all cases: Greenhouse test, post-emergence treatment
Details in all cases: application rate 0.5 kg/ha, scale 0 to 100
ABUTH = format: in vivo, Abutilon theophrasti
Source text: (§1) The culture containers used were plastic flowerpots containing loamy sand with approximately 3.0% of humus as the substrate. The seeds of the test plants were sown separately for each species.
(§2) For the post-emergence treatment, the test plants were first grown to a height of […], depending on the plant habit, and only then treated with the active ingredients which had been suspended or emulsified in water. For this purpose, the test plants were either sown directly and grown in the same containers, or they were first grown separately as seedlings and transplanted into the test containers a few days prior to treatment.
(§3) Depending on the species, the plants were kept at 10-25° C. or 20-35° C., respectively.
(§4) The test period extended over 2 to 4 weeks. During this time, the plants were tended, and their response to the individual treatments was evaluated.
(§5) Evaluation was carried out using a scale from 0 to 100. 100 means no emergence of the plants, or complete destruction of at least the aerial moieties, and 0 means no damage, or normal course of growth. A moderate herbicidal activity is given at values of at least 60, a good herbicidal activity is given at values of at least 70, and a very good herbicidal activity is given at values of at least 85.

AMARE = format: in vivo, Amaranthus retroflexus
Source text: as §1, §2, §3, §4, §5

ECHCG = format: in vivo, Echinocloa crus-galli
Source text: as §1, §2, §3, §4, §5

CC(c1nc(N)nc(Nc2c(F)c(F)cc(F)c2F)n1)C1CC1 (stereo not drawn) [Example 5, 6-(1-cyclopropylethyl)-N4-(2,3,5,6-tetrafluorophenyl)-1,3,5-triazine-2,4-diamine]
herbicidal activity (ABUTH): very good herbicidal activity (a very good herbicidal activity is given at values of at least 85)
herbicidal activity (AMARE): very good herbicidal activity (a very good herbicidal activity is given at values of at least 85)
herbicidal activity (ECHCG): very good herbicidal activity (a very good herbicidal activity is given at values of at least 85)
